In patent US11639348B2, “Compositions and methods for neuraminidase detection and quantification” (priority 2018, dated 2023):

Test system: A/Brisbane/59/2007 H1N1 Oseltamivir-Resistant NA
Assay type: biochemical, influenza A/Brisbane/59/2007 H1N1 Oseltamivir-Resistant
Conditions: pH 7.6

CC(=O)NC1C(NC(=N)N)C(F)C(Oc2c(F)cc3c(C)cc(=O)oc3c2F)(C(=O)O)OC1[C@H](O)[C@H](O)CO (stereo partly drawn) [compound 3, 5-Acetamido-4-guanidine-3-fluoro-3,4,5-trideoxy-2α-(4-methyl-6,8-difluoromethylumbelliferyl)-D-glycero-D-galactononulopyranosylnoic acid]
Km: 41.6 µM
kcat: 35.7 s⁻¹
